A short description of this data set: Aqueous solubility of amorphous vs crystalline lercanidipine hydrochloride. The class given is physicochemical. To be noted: water, stirring at 27-28° C. for 24 hr, filtered, HPLC. The method, then:
The aqueous solubility of amorphous lercanidipine hydrochloride, was compared to the solubility of crystalline lercanidipine hydrochloride. The solubility of the respective samples was determined by suspending 20-30 mg of sample test was in 10 mL water and stirring at 27-28° C. for 24 hr. The sample was then filtered through a PVDF filter (0.2 micron) and the solution diluted with acetonitrile and analyzed by HPLC.

Structures can show the parent of a compound that is named as a salt.

In the case of `COC(=O)C1=C(C)NC(C)=C(C(=O)OC(C)(C)CN(C)CCC(c2ccccc2)c2ccccc2)C1c1cccc([N+](=O)[O-])c1` (stereo not drawn) [Amorphous lercanidipine HCl (Example 1), methyl 1,1,N-trimethyl-N-(3,3-diphenylpropyl)-2-aminoethyl 1,4-dihydro-2,6-dimethyl-4-(3-nitrophenyl)pyridine-3,5-dicarboxylate], the SOLUBILITY is given as 1.5 mg/L. To `COC(=O)C1=C(C)NC(C)=C(C(=O)OC(C)(C)CN(C)CCC(c2ccccc2)c2ccccc2)C1c1cccc([N+](=O)[O-])c1` (stereo not drawn) [Amorphous lercanidipine HCl (Example 2), methyl 1,1,N-trimethyl-N-(3,3-diphenylpropyl)-2-aminoethyl 1,4-dihydro-2,6-dimethyl-4-(3-nitrophenyl)pyridine-3,5-dicarboxylate] belongs 1.5 mg/L. To `COC(=O)C1=C(C)NC(C)=C(C(=O)OC(C)(C)CN(C)CCC(c2ccccc2)c2ccccc2)C1c1cccc([N+](=O)[O-])c1` (stereo not drawn) [Crystalline lercanidipine HCl (Form I), methyl 1,1,N-trimethyl-N-(3,3-diphenylpropyl)-2-aminoethyl 1,4-dihydro-2,6-dimethyl-4-(3-nitrophenyl)pyridine-3,5-dicarboxylate, reference compound] belongs 0.65 mg/L.

The values above are taken from patent US7820701B2, “Amorphous lercanidipine hydrochloride and uses thereof” (Recordati Ireland Limited, priority 2005, dated 2010).
